Test results from patent publication US20100249172A1, “9-CHLORO NOSCAPINE AND ITS USE IN TREATING CANCERS, INCLUDING DRUG-RESISTANT CANCERS” (EMORY UNIVERSITY, priority 2007, published 2010).

Tests used:
[1] = system: MCF-7 cells; experiment: Cell cycle analysis by flow cytometry (propidium iodide); assay type: cell-based, human; conditions: for G0/G1 % / G2/M % / S % / Sub-G1 %: mean ± S.E.M.
Procedure: The flow cytometric evaluation of the cell cycle status was performed as described previously. Briefly, 2×10^6 cells were centrifuged, washed twice with ice-cold PBS, and fixed in 70% ethanol. Tubes containing the cell pellets were stored at 4° C. for at least 24 hours. Cells were then centrifuged at 1000×g for 10 min and the supernatant was discarded. The pellets were washed twice with 5 ml of PBS and then stained with 0.5 ml of propidium iodide (0.1% in 0.6% Triton-X in PBS) and 0.5 ml of RNase A (2 mg/ml) for 45 minutes in dark. Samples were then analyzed on a FACSCalibur flow cytometer (Beckman Coulter Inc., Fullerton, Calif.).
To investigate the precise mechanisms of cell death, the effect of 9-cloro-noscapine and other halogenated noscapine analogs on percent G2/M cells (mitotic index) and percent sub-G1 cells (apoptotic index) was examined as a function of dose and time in MCF-7 cells using fluorescence activated cell sorting (FACS) analysis. The effect of all compounds including noscapine was evaluated at three doses-5 μM, 10 μM and 25 μM for 0, 24, 48 and 72 hours of drug treatment. […] Fluorescently labeled DNA is a good indicator of cell cycle progression and cell death. An unreplicated complement of diploid (2N) DNA cells represents the G1 phase while duplicated tetraploid (4N) DNA cells represent G2 and M phases. Cells in the process of DNA duplication between diploid and tetraploid peaks represent S phase when DNA is being synthesized. Less than diploid DNA appears in populations of dying cells that degrade their DNA to different extents. Treatment of MCF-7 cells with these compounds for 0, 24, 48 and 72 hours led to profound perturbations of the cell cycle profile at 25 μM (FIGS. 3 A-D). […] The distribution of cell population over G0/G1, S, G2/M and sub-G1 phases of the cell cycle for 25 μM concentration is shown in Table 1.

[2] = system: CEM/VLB100 (vinblastine-resistant variant); experiment: Inhibition of cell proliferation; assay type: cell-based, human
[3] = system: MCF-7 cells; experiment: Sulforhodamine B (SRB) cell proliferation assay; assay type: cell-based; conditions: Homo sapiens, MCF7, MCF-7, 72 hours drug treatment
Procedure: (§1) Sulforhodamine B (SRB) assay: The cell proliferation assay was performed in 96-well plates as described previously. Adherent cells (MCF-7 and MDA-MB-231) were seeded in 96-well plates at a density of 5×10^3 cells per well. They were treated with increasing concentrations of the halogenated analogs the next day while in log-phase growth. After 72 hours of drug treatment, cells were fixed with 50% trichloroacetic acid and stained with 0.4% sulforhodamine B dissolved in 1% acetic acid. After 30 minutes, cells were then washed with 1% acetic acid to remove the unbound dye. The protein-bound dye was extracted with 10 mM Tris base to determine the optical density at 564-nm wavelength.
(§2) Suspension cells (CEM) were seeded into 96-well plates at a density of 5×10^3 cells per well and were treated with increasing concentrations of all halogenated analogs for 72 hours. Measurement of cell proliferation was performed colorimetrically by 3-(4,5-dimethylthiazol-2-yl)-5-(3-carboxymethoxyphenyl)-2-(4-sulphophenyl)-2H-tetrazolium, inner salt (MTS) assay, using the CellTiter96 AQueous One Solution Reagent (Promega, Madison, Wis.). Cells were exposed to MTS for 3 hours and absorbance was measured using a microplate reader (Molecular Devices, Sunnyvale, Calif.) at an optical density (OD) of 490 nm. […]

[4] = system: MDA-MB-231 cells; experiment: Sulforhodamine B (SRB) cell proliferation assay; assay type: cell-based; conditions: Homo sapiens, MDA-MB-231, 72 hours drug treatment
Procedure: as §1, §2

[5] = system: caspase-3; experiment: Apoptotic mechanism in cancer cells; assay type: cell-based
[6] = system: 1A9/PTX22 (paclitaxel-resistant variant); experiment: Inhibition of cell proliferation; assay type: cell-based
[7] = system: CEM cells; experiment: MTS cell proliferation assay; assay type: cell-based, human
Procedure: Suspension cells (CEM) were seeded into 96-well plates at a density of 5×10^3 cells per well and were treated with increasing concentrations of all halogenated analogs for 72 hours. Measurement of cell proliferation was performed colorimetrically by 3-(4,5-dimethylthiazol-2-yl)-5-(3-carboxymethoxyphenyl)-2-(4-sulphophenyl)-2H-tetrazolium, inner salt (MTS) assay, using the CellTiter96 AQueous One Solution Reagent (Promega, Madison, Wis.). Cells were exposed to MTS for 3 hours and absorbance was measured using a microplate reader (Molecular Devices, Sunnyvale, Calif.) at an optical density (OD) of 490 nm. The percentage of cell survival as a function of drug concentration for both the assays was then plotted to determine the IC50 value, which stands for the drug concentration needed to prevent cell proliferation by 50%.
Having identified tubulin as the target molecule, the pharmacological study was extended at the cellular level to determine if all the halogenated analogs affected cancer cell proliferation. As a preliminary screen, 9-chloro-nos and noscapine were evaluated for their antiproliferative activity in three human cancer cell lines; human breast adenocarcinoma cells (estrogen- and progesterone-receptor positive, MCF-7 and estrogen- and progesterone-receptor negative, MDA-MB-231) and human lymphoblastoid cells CEM. […]

[8] = system: MDA-MB-231 cells; experiment: DAPI staining, cell morphology by fluorescence microscopy; assay type: cell-based, human; conditions: 25 μM, 72 hours
Procedure: FIG. 2 is a series of photographs showing the effect of 9-chloro-nos on the morphology of cancer cells. Morphologic criteria for apoptotic cell death include, for example, chromatin condensation with aggregation along the nuclear envelope and plasma membrane blebbing followed by separation into small, apoptotic bodies. Panels show morphological evaluation of nuclei stained with DAPI from control cells (upper panels) and cells treated with 25 μM concentration of 9-Cl-nos for 72 hours (lower panels) using fluorescence microscopy. […] (Scale bar=15 μm).
Cell morphology was evaluated by fluorescence microscopy following DAPI staining (Vectashield, Vector Labs, Inc., Burlingame, Calif.). MDA-MB-231 cells were grown on poly-L-lysine coated coverslips in 6-well plates and were treated with the halogenated analogs at 25 μM for 72 hours. After incubation, coverslips were fixed in cold methanol and washed with PBS, stained with DAPI, and mounted on slides. Images were captured using a BX60 microscope (Olympus, Tokyo, Japan) with an 8-bit camera (Dage-MTI, Michigan City, Ind.) and IP Lab software (Scanalytics, Fairfax, Va.). Apoptotic cells were identified by features characteristic of apoptosis (e.g. nuclear condensation, formation of membrane blebs and apoptotic bodies).

`COc1ccc2c(c1OC)C(=O)O[C@@H]2[C@H]1c2c(c(Cl)c3c(c2OC)OCO3)CCN1C` [9-Cl-nos, (S)-3-((R)-9-chloro-4-methoxy-6-methyl-5,6,7,8-tetrahydro-[1,3]dioxolo[4,5-g]isoquinolin-5-yl)-6,7-dimethoxyisobenzofuran-1(3H)-one] showed a G0/G1 % ([1]; 25 μM, 0 h) of 69 ± 5.6%, a G2/M % ([1]; 25 μM, 0 h) of 20.7 ± 3.4% and a S % ([1]; 25 μM, 0 h) of 7.5 ± 1.6%. The Sub-G1 % ([1]; 25 μM, 0 h) was 1.4 ± 0.5%, the G0/G1 % ([1]; 25 μM, 24 h) was 11.5 ± 2.7% and the G2/M % ([1]; 25 μM, 24 h) was 59.7 ± 5.2%. The S % ([1]; 25 μM, 24 h) was 4.3 ± 1.4%, the Sub-G1 % ([1]; 25 μM, 24 h) was 15.3 ± 2.5% and the “accumulation of cells in the G2/M phase (in words)” value ([1]; 25 μM, 24 hours) was “massive accumulation of cells in the G2/M phase”. It also gave a G0/G1 % ([1]; 25 μM, 48 h) of 8 ± 3.3%, a G2/M % ([1]; 25 μM, 48 h) of 42.4 ± 3.8% and a S % ([1]; 25 μM, 48 h) of 4 ± 1.1%. The Sub-G1 % ([1]; 25 μM, 48 h) was 37.8 ± 3.2%, the G0/G1 % ([1]; 25 μM, 72 h) was 5.9 ± 1.9% and the G2/M % ([1]; 25 μM, 72 h) was 35.3 ± 3.9%. The S % ([1]; 25 μM, 72 h) was 4.1 ± 1.4%, the Sub-G1 % ([1]; 25 μM, 72 h) was 50.2 ± 2.5% and the “percent sub-G1 cells compared with noscapine” value ([1]; lower doses (5 μM and 10 μM), 72 hours) was “higher”. The “inhibition of cell proliferation (in words)” value (“inhibition” below) [2] was “effectively inhibits cell proliferation”, the IC50 [3] was 1.9 ± 0.3 µM and the IC50 [4] was 3.5 ± 0.4 µM. The caspase-3 activation [5] was “associated with activation of the key executioner cysteine protease, caspase-3”, the “inhibition” value [6] was “effectively inhibits cell proliferation” and the “inhibition” value [7] was “effectively inhibits cell proliferation”. The IC50 ([7]; Homo sapiens, CCRF-CEM, 72 hours) was 1.2 ± 0.3 µM and the “nuclear morphology, features of apoptotic cells” value [8] was “condensed chromosomes, numerous fragmented micronuclei, and apoptotic bodies are evident”.
